Measurements: PMC7395068, “The evolution of strategies to minimise the risk of human drug-induced liver injury (DILI) in drug discovery and development” (Archives of Toxicology, 2020)
Read-outs that look alike come from different tables or passages of the source.

What was measured:
[1] = cited from earlier work; for DILI severity category (Chen 2016): human DILI classification, LTKB DILIrank
[2] = tested on: THLE-Null and THLE-3A4 cells; settings: In vitro Assay; ref Gustafsson 2014; cited from earlier work
rBsep = settings: In vitro Assay; ref Dawson 2012; cited from earlier work
[3] = tested on: HepG2 cells, primary human hepatocytes; settings: In vitro Assay; ref Garside 2014; cited from earlier work
PHH = settings: cited from earlier work
[4] = ref Chen 2011; cited from earlier work
[5] = Plasma free fraction (fu) and unbound Cmax (Cmax,u); assay type: in vitro ADME, human; settings: unbound plasma Cmax
HepG2 cells [6] = settings: cited from earlier work
hLiMTs [7] = test: Combined HCI (HCS) and cellular ATP 3D assay in hLiMTs; settings: for AC50 / minimal effective concentration: Homo sapiens
[8] = tested on: HepG2 C3A spheroid, BSEP, Glu/Gal in HepG2 cells, bioactivation; settings: cited from earlier work
hLiMTs [9] = settings: cited from earlier work
HepG2 cells [10] = settings: cited from earlier work; remark: listed apart in the source
human hepatocytes = settings: cited from earlier work
[11] = plasma free fraction; cited from earlier work
[12] = cited from earlier work
[13] = tested on: primary human hepatocytes, NIH3T3 fibroblasts, BSEP, CYP3A4; settings: cited from earlier work
[14] = read-out: Human plasma Cmax; total plasma Cmax.tot, median of 9 literature references; cited from earlier work
HepaRG spheroids = test: Combined HCI (HCS) and cellular ATP 3D assay in HepaRG spheroids; settings: for AC50 / minimal effective concentration: Homo sapiens
[15] = In vitro Assay, ref Proctor 2017
[16] = Microtissue model structural based (HCI), combined HCS and ATP, MEC < 25 × Cmax.tot cut-off
[17] = In vitro Assay, ref Persson 2013
[18] = In vitro Assay, ref Schadt 2015

- Human plasma Cmax,u [5]: 29 nM
- hLiMTs <25x Avg Cmax ATP (hLiMTs [7]; hLiMTs, ATP endpoint, cut-off <25x Avg Cmax): +ve
- hLiMTs <100x Avg Cmaxu ATP (hLiMTs [7]; hLiMTs, ATP endpoint, cut-off <100x Avg Cmaxu): -ve
- hLiMTs <25x Avg Cmax HCS (hLiMTs [7]; hLiMTs, HCS endpoints, cut-off <25x Avg Cmax): +ve
- hLiMTs <100x Avg Cmaxu HCS (hLiMTs [7]; hLiMTs, HCS endpoints, cut-off <100x Avg Cmaxu): -ve
- hLiMTs <25x Avg Cmax All (hLiMTs [7]; hLiMTs, all endpoints (ATP and HCS), cut-off <25x Avg Cmax): +ve
- hLiMTs Cmax max All (hLiMTs [7]; hLiMTs, all endpoints, Cmax max used): +ve
- hLiMTs Cmax min All (hLiMTs [7]; hLiMTs, all endpoints, Cmax min used): +ve
- hLiMTs <10 uM All (hLiMTs [7]; hLiMTs, all endpoints, cut-off <10 uM): +ve (<10 uM)
- hLiMTs <100x Avg Cmaxu All (hLiMTs [7]; hLiMTs, all endpoints, cut-off <100x Avg Cmaxu): -ve
- HepaRG <25x Avg Cmax ATP (HepaRG spheroids; HepaRG, ATP endpoint, cut-off <25x Avg Cmax): +ve
- HepaRG <100x Avg Cmaxu ATP (HepaRG spheroids; HepaRG, ATP endpoint, cut-off <100x Avg Cmaxu): -ve
- HepaRG <25x Avg Cmax HCS (HepaRG spheroids; HepaRG, HCS endpoints, cut-off <25x Avg Cmax): +ve
- HepaRG <100x Avg Cmaxu HCS (HepaRG spheroids; HepaRG, HCS endpoints, cut-off <100x Avg Cmaxu): -ve
- HepaRG <25x Avg Cmax All (HepaRG spheroids; HepaRG, all endpoints (ATP and HCS), cut-off <25x Avg Cmax): +ve
- HepaRG Cmax max All (HepaRG spheroids; HepaRG, all endpoints, Cmax max used): +ve
- HepaRG Cmax min All (HepaRG spheroids; HepaRG, all endpoints, Cmax min used): +ve
- HepaRG <10 uM All (HepaRG spheroids; HepaRG, all endpoints, cut-off <10 uM): -ve
- HepaRG <100x Avg Cmaxu All (HepaRG spheroids; HepaRG, all endpoints, cut-off <100x Avg Cmaxu): -ve
Structure (SMILES): CCc1ccc(CCOc2ccc(CC3SC(=O)NC3=O)cc2)nc1 (stereo not shown) [pioglitazone, reference compound]
- DILI severity category (Chen et al. [2016]) ([1]; LTKB DILIrank category, ref Chen et al. 2016): Less
- DILI severity category (Chen 2016) ([1]; ref Chen et al. 2016): Less
- DILI severity category (Chen 2016) ([1]; ref Chen et al. 2016, listed as Pioglitazone): Less DILI severity
- DILI severity category ([1]; human DILI severity, ref Chen et al.): Less
- DILI +VE (5-8), DILI -VE (-4) ([1]; ref Chen 2016): +VE
- DILI severity category ([1]; ref Chen 2016): vLess-DILI-Concern
- THLE-Null [2]: -VE
- THLE-Null/3A4 [2]: -VE
- Inhibition of rBsep cutoff<1& cmax u>.2 (rBsep): +VE
- Inhibition of rBsep cutoff<3 (rBsep): +VE
- Cluster 1-6 +VE Assay [3]: +VE
- PHH/100xCmax, Proctor (2017) (PHH; 2D PHH, ATP, IC50 < 100 × Cmax.tot, ref Proctor et al. 2017): -VE
- PHH/100uM, Proctor (2017) (PHH; 2D PHH, ATP, IC50 threshold 100 µM, ref Proctor et al. 2017): -VE
- PHH ATP <100uM (PHH; [15]): -VE
- DILI Score (FDA) (1-8) [4]: 3
- Structural based (HCI) (HepG2 cells [6]; In vitro Assay, ref O'Brien 2006): +VE
- DILI in vitro assay prediction, O'Brien (2006) (HepG2 cells [6]; Structural based (HCI), HepG2, ref O'Brien et al. 2006): -VE
- AC50 (hLiMTs [7]; read-out: ATP endpoint AC50): 106 µM
- minimal effective concentration (hLiMTs [7]; read-out: ATP endpoint MEC): 38.1 µM
- AC50 (hLiMTs [7]; read-out: HCS endpoint AC50): 9.95 µM
- minimal effective concentration (hLiMTs [7]; read-out: HCS endpoint MEC): 5.35 µM
- DILI prediction hLiMTs (HCS-MEC) (hLiMTs [7]; [16]): +VE (MEC < 25 × Cmax.tot cut-off)
- Bayesian Machine Learning DILI prediction, Williams (2019) ([8]; Bayesian modeling, ref Williams et al. 2019): +VE
- Bayesian Machine Learning ([8]; In vitro Assay, ref Williams 2019): +VE
- hLiMTs ATP <100uM (hLiMTs [9]; [15]): -VE
- hLiMTs/100xCmax, Proctor (2017) (hLiMTs [9]; hLiMTs, ATP, IC50 < 100 × Cmax.tot, ref Proctor et al. 2017): -VE
- hLiMTs/100uM, Proctor (2017) (hLiMTs [9]; hLiMTs, ATP, IC50 threshold 100 µM, ref Proctor et al. 2017): -VE
- Cluser analysis (HepG2 cells [10]; [17]): -VE
- Structural based (HCI) (HepG2 cells [10]; [17]): +VE
- DILI in vitro assay prediction, Persson (2013) (HepG2 cells [10]; Structural based (HCI), HepG2, ref Persson et al. 2013): -VE
- Structural based (HCI) (human hepatocytes; In vitro Assay, ref Xu 2008): -VE
- DILI in vitro assay prediction, Xu (2008) (human hepatocytes; Structural based (HCI), human hepatocytes, ref Xu et al. 2008): -VE
- fu [11]: 0.010
- Assigned DILI category ([12]; Chen et al. 2016 or literature alignment, ref Chen et al. 2016): 2
- In vivo DILI ([12]; […]): -VE
- In vivo DILI ([12]; ref Dawson 2012): +VE
- In vivo DILI ([12]; ref Garside 2014): +VE
- in vivo DILI categorisation in the literature ([12]; ref Garside et al. 2014, Proctor et al. 2017, Gustafsson et al. 2014): in vivo DILI positive
- In vivo DILI ([12]; ref Gustafsson 2014): +VE
- In vivo DILI ([12]; ref O'Brien 2006): -VE
- in vivo DILI categorisation in the literature ([12]; ref O'Brien et al. 2006, Xu et al. 2008, Dawson et al. 2012, Persson et al. 2013): non-DILI potential
- In vivo DILI ([12]; ref Persson 2013): -VE
- In vivo DILI ([12]; ref Proctor 2017): +VE
- In vivo DILI ([12]; ref Schadt 2015): +VE
- In vivo DILI ([12]; ref Williams 2019): +VE
- In vivo DILI ([12]; ref Xu 2008): -VE
- DILI in vitro assay prediction, Schadt (2015) ([13]; BSEP & Metabolism based, ref Schadt et al. 2015): +VE
- Cellular toxicity (3T3 cells) [13, 18]: -VE
- Combined Assay [13, 18]: +VE
- GSH adduct HML [13, 18]: -VE
- Hepatocyte cellular toxicity [13, 18]: +VE
- MitoTox 3T3 [13, 18]: -VE
- TDI CYP3A4 [13, 18]: -VE
- hBSEP inhibition [13, 18]: +VE
- Cmax [14]: 2950 nM
- AC50 (HepaRG spheroids; HepaRG, read-out: ATP endpoint AC50): 67.5 µM
- minimal effective concentration (HepaRG spheroids; HepaRG, read-out: ATP endpoint MEC): 44.7 µM
- AC50 (HepaRG spheroids; HepaRG, read-out: HCS endpoint AC50): 93.7 µM
- minimal effective concentration (HepaRG spheroids; HepaRG, read-out: HCS endpoint MEC): 39.2 µM
- DILI prediction HepaRG spheroids (HCS-MEC) (HepaRG spheroids; [16]): +VE (MEC < 25 × Cmax.tot cut-off)
